From ChEMBL document CHEMBL1134574, “Synthesis and characterization of non-steroidal ligands for the glucocorticoid receptor: selective quinoline derivatives with prednisolone-equivalent functional activity” (J Med Chem, 2001)

Tests used:
Glucocorticoid receptor [1] = target: T1, Glucocorticoid receptor (Homo sapiens, UniProt P04150); test: Transcriptional repression activity in HEP G2 cells expressing glucocorticoid receptor compared to Dexamethasone; format: functional, cell-based, HepG2
T1 sequence (P04150 whole entry): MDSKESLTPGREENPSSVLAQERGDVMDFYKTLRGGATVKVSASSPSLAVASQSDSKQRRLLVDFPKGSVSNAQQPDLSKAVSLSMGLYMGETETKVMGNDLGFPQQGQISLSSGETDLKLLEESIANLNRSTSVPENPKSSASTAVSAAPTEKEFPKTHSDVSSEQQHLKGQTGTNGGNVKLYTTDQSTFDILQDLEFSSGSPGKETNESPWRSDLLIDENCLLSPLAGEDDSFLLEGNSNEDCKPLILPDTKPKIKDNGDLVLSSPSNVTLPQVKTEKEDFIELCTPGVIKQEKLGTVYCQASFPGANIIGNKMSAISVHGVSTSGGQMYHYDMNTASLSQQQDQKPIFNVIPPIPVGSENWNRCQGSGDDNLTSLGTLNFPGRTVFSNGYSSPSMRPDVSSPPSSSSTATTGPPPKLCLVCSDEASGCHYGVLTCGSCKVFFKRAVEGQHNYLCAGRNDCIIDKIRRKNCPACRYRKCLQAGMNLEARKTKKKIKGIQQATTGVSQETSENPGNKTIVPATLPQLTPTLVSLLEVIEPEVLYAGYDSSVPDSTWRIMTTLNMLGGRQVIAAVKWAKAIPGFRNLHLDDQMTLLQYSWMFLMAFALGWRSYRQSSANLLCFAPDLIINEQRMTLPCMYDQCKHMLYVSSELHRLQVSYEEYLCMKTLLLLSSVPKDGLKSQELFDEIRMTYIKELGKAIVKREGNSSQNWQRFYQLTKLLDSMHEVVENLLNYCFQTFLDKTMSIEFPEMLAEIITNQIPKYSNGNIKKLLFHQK

Androgen receptor = target: T2, Androgen receptor (Homo sapiens, UniProt P10275); test: Binding affinity for androgen receptor
T2 sequence (P10275 whole entry): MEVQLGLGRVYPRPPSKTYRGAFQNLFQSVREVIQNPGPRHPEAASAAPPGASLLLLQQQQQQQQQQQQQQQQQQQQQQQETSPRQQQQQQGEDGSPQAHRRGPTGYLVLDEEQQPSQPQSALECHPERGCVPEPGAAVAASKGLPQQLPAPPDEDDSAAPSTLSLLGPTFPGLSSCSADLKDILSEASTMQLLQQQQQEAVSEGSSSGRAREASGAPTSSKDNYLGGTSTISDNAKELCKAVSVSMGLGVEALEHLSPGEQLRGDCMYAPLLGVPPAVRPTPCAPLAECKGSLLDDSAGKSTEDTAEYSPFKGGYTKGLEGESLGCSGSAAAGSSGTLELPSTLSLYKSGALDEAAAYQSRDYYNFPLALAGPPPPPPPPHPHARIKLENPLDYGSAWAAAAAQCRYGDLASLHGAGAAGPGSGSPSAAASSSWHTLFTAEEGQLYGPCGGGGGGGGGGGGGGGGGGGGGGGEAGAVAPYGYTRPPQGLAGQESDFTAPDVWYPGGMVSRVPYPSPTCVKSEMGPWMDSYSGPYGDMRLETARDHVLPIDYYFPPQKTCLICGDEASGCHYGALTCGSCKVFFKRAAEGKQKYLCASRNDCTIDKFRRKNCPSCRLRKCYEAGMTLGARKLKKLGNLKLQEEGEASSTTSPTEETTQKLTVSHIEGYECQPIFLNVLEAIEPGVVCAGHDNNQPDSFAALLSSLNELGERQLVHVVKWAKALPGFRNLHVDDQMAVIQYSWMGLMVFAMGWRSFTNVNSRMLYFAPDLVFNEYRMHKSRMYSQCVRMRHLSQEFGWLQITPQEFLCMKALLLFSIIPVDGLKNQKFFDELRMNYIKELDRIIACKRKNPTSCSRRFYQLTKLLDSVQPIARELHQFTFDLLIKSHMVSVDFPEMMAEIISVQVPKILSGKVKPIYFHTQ

Glucocorticoid receptor [2] = target: T1, Glucocorticoid receptor; test: Binding affinity for glucocorticoid receptor
Glucocorticoid receptor [3] = target: T1, Glucocorticoid receptor; test: Transcriptional activation in CV-1 cells expressing glucocorticoid receptor; format: functional, cell-based
Glucocorticoid receptor [4] = target: T1, Glucocorticoid receptor; test: Glucocorticoid-induced aromatase activity in human skin fibroblasts; format: functional
Estrogen receptor = Estrogen receptor (Homo sapiens, UniProt Q92731+P03372); test: Binding affinity for estrogen receptor; format: protein assay
Glucocorticoid receptor [5] = target: T1, Glucocorticoid receptor; test: Repression activity of GR ligand with interleukin-6 receptor in native cell assay using Dexamethasone was determined as maximal potency; format: functional
[6] = target: T3, Mineralocorticoid receptor (Homo sapiens, UniProt P08235); test: Binding affinity for mineralocorticoid receptor
T3 sequence (P08235 whole entry): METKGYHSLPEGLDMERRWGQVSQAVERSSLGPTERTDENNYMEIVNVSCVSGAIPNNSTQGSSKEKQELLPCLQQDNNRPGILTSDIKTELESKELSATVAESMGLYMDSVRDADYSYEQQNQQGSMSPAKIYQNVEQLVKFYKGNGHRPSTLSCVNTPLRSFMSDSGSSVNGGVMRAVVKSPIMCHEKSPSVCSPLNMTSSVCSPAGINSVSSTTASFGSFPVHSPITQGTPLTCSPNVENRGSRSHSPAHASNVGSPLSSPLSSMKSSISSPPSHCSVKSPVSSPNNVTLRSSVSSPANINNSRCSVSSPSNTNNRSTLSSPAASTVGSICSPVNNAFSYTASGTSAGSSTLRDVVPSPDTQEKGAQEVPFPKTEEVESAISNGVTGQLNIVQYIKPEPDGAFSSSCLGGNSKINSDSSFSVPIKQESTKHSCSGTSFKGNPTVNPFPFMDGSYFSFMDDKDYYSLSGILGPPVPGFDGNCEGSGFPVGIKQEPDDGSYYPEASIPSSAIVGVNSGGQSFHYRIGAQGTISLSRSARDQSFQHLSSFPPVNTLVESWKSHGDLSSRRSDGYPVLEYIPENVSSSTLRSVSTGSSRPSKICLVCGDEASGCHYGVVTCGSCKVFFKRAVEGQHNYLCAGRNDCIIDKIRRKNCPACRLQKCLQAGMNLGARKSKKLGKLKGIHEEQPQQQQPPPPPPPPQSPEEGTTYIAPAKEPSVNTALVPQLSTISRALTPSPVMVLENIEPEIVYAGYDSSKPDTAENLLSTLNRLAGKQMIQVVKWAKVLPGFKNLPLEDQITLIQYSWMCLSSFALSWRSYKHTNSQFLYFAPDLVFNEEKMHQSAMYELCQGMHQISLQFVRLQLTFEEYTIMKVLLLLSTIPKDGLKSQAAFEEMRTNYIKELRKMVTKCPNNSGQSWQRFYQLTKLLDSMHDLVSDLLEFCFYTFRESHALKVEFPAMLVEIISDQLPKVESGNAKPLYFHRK

Progesterone receptor = target: T4, Progesterone receptor (Homo sapiens, UniProt P06401); test: Binding affinity for progesterone receptor
T4 sequence (P06401 whole entry): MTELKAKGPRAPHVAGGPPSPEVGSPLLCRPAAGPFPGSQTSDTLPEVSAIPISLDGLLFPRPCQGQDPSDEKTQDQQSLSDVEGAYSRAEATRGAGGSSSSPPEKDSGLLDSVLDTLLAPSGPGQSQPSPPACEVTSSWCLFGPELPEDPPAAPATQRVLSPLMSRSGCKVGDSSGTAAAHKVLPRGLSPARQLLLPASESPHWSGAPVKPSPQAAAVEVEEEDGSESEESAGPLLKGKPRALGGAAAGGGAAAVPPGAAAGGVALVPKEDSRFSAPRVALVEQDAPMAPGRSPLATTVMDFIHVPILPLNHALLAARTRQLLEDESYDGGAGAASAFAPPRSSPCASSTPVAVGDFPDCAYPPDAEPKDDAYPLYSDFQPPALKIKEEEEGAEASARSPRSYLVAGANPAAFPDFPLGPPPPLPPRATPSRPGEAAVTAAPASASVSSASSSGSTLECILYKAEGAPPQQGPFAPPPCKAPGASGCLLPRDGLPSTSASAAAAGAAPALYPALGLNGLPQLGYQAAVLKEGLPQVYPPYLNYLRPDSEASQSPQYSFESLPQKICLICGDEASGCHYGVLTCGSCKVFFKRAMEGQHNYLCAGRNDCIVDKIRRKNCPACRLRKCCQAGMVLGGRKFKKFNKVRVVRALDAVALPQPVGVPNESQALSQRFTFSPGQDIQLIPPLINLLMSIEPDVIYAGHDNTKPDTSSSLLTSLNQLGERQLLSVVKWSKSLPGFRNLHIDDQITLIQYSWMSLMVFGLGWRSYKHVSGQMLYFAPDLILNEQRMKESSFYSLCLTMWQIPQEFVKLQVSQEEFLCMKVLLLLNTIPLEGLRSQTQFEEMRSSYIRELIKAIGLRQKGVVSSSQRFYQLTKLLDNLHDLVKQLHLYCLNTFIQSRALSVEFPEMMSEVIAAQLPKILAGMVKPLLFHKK

Glucocorticoid receptor [7] = target: T1, Glucocorticoid receptor; test: Displacement of [3H]- Dexamethasone from glucocorticoid receptor
Rattus norvegicus = species: Rattus norvegicus; test: Anti-asthmatic effect as eosinophil influx in rat lung model; format: functional
Glucocorticoid receptor [8] = target: T1, Glucocorticoid receptor; test: Transcriptional repression of IL-1 stimulated IL-6 expression in native cells compared to Dexamethasone; format: functional, cell-based

| SMILES | IC50 (Glucocorticoid receptor [1]) [nM] | Ki (Androgen receptor) [nM] | Ki (Glucocorticoid receptor [2]) [nM] | IC50 (Glucocorticoid receptor [3]) [nM] | IC50 (Glucocorticoid receptor [4]) [nM] | Ki (Estrogen receptor) [nM] | IC50 (Glucocorticoid receptor [5]) [nM] | Ki [6] [nM] | Ki (Progesterone receptor) [nM] | also measured |
| --- | --- | --- | --- | --- | --- | --- | --- | --- | --- | --- |
| COc1cccc2c1-c1ccc3c(c1C(c1cc(C)cc(Br)c1)O2)C(C)=CC(C)(C)N3 (stereo unspecified) | 18 |  |  | 29 | 314 |  | 12 |  |  |  |
| COc1cccc2c1-c1ccc3c(c1C(c1cccc(OC(=O)N(C)C)c1)O2)C(C)=CC(C)(C)N3 (stereo unspecified) | 6 | 3070 |  | 12 | 216 | > 1000 | 26 | 3910 | > 5000 | Ki (Glucocorticoid receptor [7]): 2.4 nM |
| CC1=CC(C)(C)Nc2ccc3c(c21)C(c1ccccc1)Oc1ccc(Cl)cc1-3 (stereo unspecified) |  | 1400 | 9.3 |  |  | > 1000 |  | 1100 | 53 |  |
| C[C@]12C=CC(=O)C=C1CC[C@@H]1[C@@H]2[C@@H](O)C[C@@]2(C)[C@H]1CC[C@]2(O)C(=O)CO [PREDNISOLONE] |  |  |  |  |  | > 1000 |  | 37 |  | ED50 (Rattus norvegicus): 1.2 mg/kg |
| COc1cccc2c1-c1ccc3c(c1C(c1ccccc1)O2)C(C)=CC(C)(C)N3 (single isomer, unassigned; (-)) |  |  | 2.1 |  |  |  |  |  | > 5000 | IC50 (Glucocorticoid receptor [8]): 30 nM |
| COc1cccc2c1-c1ccc3c(c1C(c1cc(Cl)cc(Cl)c1)O2)C(C)=CC(C)(C)N3 (stereo in doubt; 17) |  |  |  |  |  |  |  |  | > 5000 |  |
| COc1cccc2c1-c1ccc3c(c1C(c1cc(Cl)cc(Cl)c1)O2)C(C)=CC(C)(C)N3 (single isomer, unassigned; (+)) |  | > 5000 |  |  |  |  |  | > 5000 | > 5000 |  |
| COc1cccc2c1-c1ccc3c(c1C(c1cc(C)cc(C)c1)O2)C(C)=CC(C)(C)N3 (stereo unspecified) | 18 |  |  | 24 | 146 |  | 9.2 |  |  |  |
| COCOc1cccc(C2Oc3cccc(OC)c3-c3ccc4c(c32)C(C)=CC(C)(C)N4)c1 (stereo unspecified) | 23 |  |  | 28 | 131 |  | 49 |  |  |  |
| COc1cccc2c1-c1ccc3c(c1C(c1ccccc1)O2)C(C)=CC(C)(C)N3 (stereo in doubt; (+)19) |  | > 5000 | 240 |  |  |  |  | > 5000 | > 5000 |  |
| COc1ccc2c(c1)OC(c1ccccc1)c1c-2ccc2c1C(C)=CC(C)(C)N2 (stereo unspecified) |  |  | 1800 |  |  |  |  |  | > 5000 |  |

Continued, in another order:

| IC50 (Glucocorticoid receptor [1]) [nM] | Ki (Androgen receptor) [nM] | Ki (Glucocorticoid receptor [2]) [nM] | IC50 (Glucocorticoid receptor [3]) [nM] | IC50 (Glucocorticoid receptor [4]) [nM] | Ki (Estrogen receptor) [nM] | IC50 (Glucocorticoid receptor [5]) [nM] | Ki [6] [nM] | Ki (Progesterone receptor) [nM] | SMILES | also measured |
| --- | --- | --- | --- | --- | --- | --- | --- | --- | --- | --- |
| 57 | 3360 | 11 | 44 | 105 | > 1000 | 32 | 493 |  | COc1cccc2c1-c1ccc3c(c1C(c1cccc(C(F)(F)F)c1)O2)C(C)=CC(C)(C)N3 (stereo unspecified) |  |
| 9 |  |  | 10 | 56 |  | 11 |  |  | COc1cccc2c1-c1ccc3c(c1C(c1cc(F)cc(F)c1)O2)C(C)=CC(C)(C)N3 (stereo unspecified) |  |
|  |  |  |  |  |  |  |  | 1560 | COc1cccc2c1-c1ccc3c(c1C(c1cc(Cl)cc(Cl)c1)O2)C(C)=CC(C)(C)N3 (stereo in doubt; (-)22) |  |
|  |  | 18 |  |  |  |  |  | 390 | COc1ccc2c(c1)-c1ccc3c(c1C(c1ccccc1)O2)C(C)=CC(C)(C)N3 (stereo unspecified) |  |
| 123 | 2660 | 4.7 | 300 | 164 | > 1000 | 51 | 1680 | > 5000 | COc1cccc2c1-c1ccc3c(c1C(c1ccccc1)O2)C(C)=CC(C)(C)N3 (stereo in doubt; 10) |  |
